Data taken from patent US8017612B2, “Piperazine compound and use thereof as a HCV polymerase inhibitor” (priority 2006, dated 2011).

Experiments:
[1] = target: T1, HCV polymerase (NS5B) type 1b (Hepatitis C virus genotype 1b, UniProt P26663); test: Assay of enzyme (HCV polymerase) inhibitory activity, type 1b enzyme; assay type: biochemical, HCV BK strain (type 1b); conditions: HCV polymerase inhibitory activity (IC50), 1b, type 1b enzyme 0.5 μg/ml, 25° C., 60 min
T1 construct: a region encoding NS5B (J Virol 1991 March, 65(3), 1105-13, 544 amino acids after deletion of 47 amino acids on the C-terminal); 6xHis (C); made in house; host or cells: Escherichia coli
In short: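 Rxn: NS5B 1b (BK, ΔC47, His6) 0.5 μg/ml; substrate RNA 5 μg/ml; ATP/GTP/CTP 50 μM, UTP 2 μM + [5,6-3H]UTP; 20 mM Tris pH 7.5, 5 mM MgCl2, 50 mM NaCl, 1 mM EDTA/DTT. 25 °C, 60 min. Stop with TCA/pyrophosphate, filter, scintillation count; IC50 vs. untreated.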

[2] = target: T2, HCV polymerase (NS5B) type 1a (Hepatitis C virus genotype 1a, UniProt P26664); test: Assay of enzyme (HCV polymerase) inhibitory activity, type 1a enzyme; assay type: biochemical, HCV type 1a (cloned from the blood of patients); conditions: HCV polymerase inhibitory activity (IC50), 1a, type 1a enzyme 1.5 μg/ml, 25° C., 60 min
T2 construct: made in house; host or cells: Escherichia coli (by the 'similar method' of the 1b enzyme)
In short: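 NS5B Δ47 C-term His6 (type 1a, 1.5 μg/ml); substrate RNA 5 μg/ml; ATP/GTP/CTP 50 μM, UTP 2 μM + [5,6-3H]UTP; Tris pH 7.5, MgCl2 5 mM; 25° C, 60 min. TCA/pyrophosphate stop, GF/B filter, scintillation. IC50 vs no-compound control.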

Compound	IC50 [1] [nM]	IC50 [2] [nM]
COC(=O)c1cc(S(=O)(=O)N2CCN(C(C)=O)C[C@@H]2C(=O)NCc2ccc(C(C)C)cc2)ccc1OC [Example 235, 5-[(R)-4-acetyl-2-(4-isopropyl-benzylcarbamoyl)-piperazine-1-sulfonyl]-2-methoxy-benzoic acid methyl ester]	> 1000	> 1000
CCc1cc(S(=O)(=O)N2CCN(C(C)=O)C[C@@H]2C(=O)NCc2ccc(C(C)C)cc2)ccc1OC [Example 236, (R)-4-acetyl-1-(3-ethyl-4-methoxy-benzenesulfonyl)-piperazine-2-carboxylic acid 4-isopropyl-benzylamide]	100 to 1000	100 to 1000
CC(=O)N1CCN(S(=O)(=O)c2ccc(CC(C)(C)C)cc2)[C@@H](C(=O)NCc2ccc(C(C)C)cc2)C1 [Example 237, (R)-4-acetyl-1-[4-(2,2-dimethyl-propyl)-benzenesulfonyl]-piperazine-2-carboxylic acid 4-isopropyl-benzylamide]	< 100	< 100
COC(=O)COc1ccc(S(=O)(=O)N2CCN(C(C)=O)C[C@@H]2C(=O)NCc2ccc(C(C)C)cc2)cc1 [Example 238, {4-[(R)-4-acetyl-2-(4-isopropyl-benzylcarbamoyl)-piperazine-1-sulfonyl]-phenoxy}-acetic acid methyl ester]	100 to 1000	> 1000
COc1ccc(S(=O)(=O)N2CCN(C(C)=O)C[C@@H]2C(=O)NCc2ccc(C(C)C)cc2)cc1C#N [Example 239, (R)-4-acetyl-1-(3-cyano-4-methoxy-benzenesulfonyl)-piperazine-2-carboxylic acid 4-isopropyl-benzylamide]	100 to 1000	> 1000
COc1ccc(S(=O)(=O)N2CCN(C(C)=O)C[C@@H]2C(=O)NCc2ccc(C(C)C)cc2)cc1C(C)(C)C [Example 240, (R)-4-acetyl-1-(3-tert-butyl-4-methoxy-benzenesulfonyl)-piperazine-2-carboxylic acid 4-isopropyl-benzylamide]	< 100	100 to 1000
COc1ccc(S(=O)(=O)N2CCN(C(C)=O)C[C@@H]2C(=O)NCc2ccc(C(C)C)cc2)cc1C1CCCC1 [Example 241, (R)-4-acetyl-1-(3-cyclopentyl-4-methoxy-benzenesulfonyl)-piperazine-2-carboxylic acid 4-isopropyl-benzylamide]	100 to 1000	100 to 1000
CC(C)c1ccc(CNC(=O)[C@H]2CN(C(=O)Cn3nccn3)CCN2S(=O)(=O)c2ccc(C(F)(F)F)cc2)cc1 [Example 242, (R)-4-(2-[1,2,3]triazol-2-yl-acetyl)-1-(4-trifluoromethyl-benzenesulfonyl)-piperazine-2-carboxylic acid 4-isopropyl-benzylamide]	100 to 1000	100 to 1000
CC(C)c1ccc(CNC(=O)[C@H]2CN(C(=O)NCc3ccccc3)CCN2S(=O)(=O)c2ccc(C(F)(F)F)cc2)cc1 [Example 243, (R)-4-(4-trifluoromethyl-benzenesulfonyl)-piperazine-1,3-dicarboxylic acid 1-benzylamide 3-(4-isopropyl-benzylamide)]	> 1000	> 1000
CC(C)c1ccc(CNC(=O)[C@H]2CN(c3nc(C(=O)O)cs3)CCN2S(=O)(=O)c2ccc(C(F)(F)F)cc2)cc1 [Example 244, 2-[(R)-3-(4-isopropyl-benzylcarbamoyl)-4-(4-trifluoromethyl-benzenesulfonyl)-piperazin-1-yl]-thiazole-4-carboxylic acid]	100 to 1000	100 to 1000
CCOC(=O)COc1ccc(NC(=O)N2CCN(S(=O)(=O)c3ccc(C(F)(F)F)cc3)[C@@H](C(=O)NCc3ccc(C(C)C)cc3)C2)cc1 [Example 245, (4-{[(R)-3-(4-isopropyl-benzylcarbamoyl)-4-(4-trifluoromethyl-benzenesulfonyl)-piperazine-1-carbonyl]-amino}-phenoxy)-acetic acid ethyl ester]	100 to 1000	> 1000
